Test results reported in patent US20260184663A1, “INDENE COMPOUNDS, PHARMACEUTICAL COMPOSITIONS THEREOF, AND THEIR THERAPEUTIC APPLICATIONS” (NucMito Pharmaceuticals co. Ltd., priority 2022, published 2026).
Like-named read-outs stand apart in the source and are kept apart here.

Columns and labels:
Format in all cases: cell-based
[1] = test system: MDA-MB-231 (breast cancer); assay: Antiproliferative activity (CCK-8 cell viability), MDA-MB-231; conditions: Homo sapiens, 72 h; for inhibition at 3.3 µM: Compound concentration: 3.3 μM; for inhibition at 10 µM: Compound concentration: 10 μM; for inhibition at 30 µM: Compound concentration: 30 μM
Summary of the method: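 In this CCK-8 viability assay, MDA-MB-231 cells maintained in Dulbecco's modified Eagle's medium containing 10% fetal bovine serum were placed in 96-well plates (2,000-5,000 cells/well) and treated with compound for 72 h at 37° C. A 4 h incubation with 10 μL CCK-8 followed, plates were read at 450 nm, and viability was expressed against DMSO vehicle wells across replicates.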

HepG2 (liver cancer) = assay: Antiproliferative activity (CCK-8 cell viability), HepG2; conditions: Homo sapiens, 72 h, read-out: Antiproliferative activity in cancerous cells, HepG2 (inhibition of cell growth); for inhibition at 3.3 µM: Compound concentration: 3.3 μM; for inhibition at 10 µM: Compound concentration: 10 μM
Summary of the method: (§1)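 Cells were seeded at 2,000-5,000/well (HeLa in MEM, HepG2 and SW480 in DMEM, A549 in F-12K, all with 10% FBS) and treated with compound at 3.3, 10 or 30 μM for 72 h at 37° C. CCK-8 was added for 4 h, absorbance was read at 450 nm, and viability was expressed relative to DMSO-treated wells.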

SW480 (colon cancer) = assay: Antiproliferative activity (CCK-8 cell viability), SW480; conditions: Homo sapiens, 72 h, read-out: Antiproliferative activity in cancerous cells, SW480 (inhibition of cell growth); for inhibition at 3.3 µM: Compound concentration: 3.3 μM; for inhibition at 10 µM: Compound concentration: 10 μM
Summary of the method: as §1

[2] = test system: B16F10 (malignant melanoma); assay: Antiproliferative activity (CCK-8 cell viability), B16F10; conditions: Mus musculus, 72 h, read-out: Antiproliferative activity in cancerous cells, B16F10 (inhibition of cell growth); for inhibition at 3.3 µM: B16-F10, Compound concentration: 3.3 μM; for inhibition at 10 µM: B16-F10, Compound concentration: 10 μM
Summary of the method: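 Attached B16F10 cells in 96-well plates were incubated with compound at 37° C for 72 h, followed by 10 μL CCK-8 reagent per well and a further 4 h incubation. A multi-well plate reader measured absorbance at 450 nm. Percent viability across replicates was calculated against DMSO vehicle-treated cells.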

[3] = test system: A431 (epidermoid carcinoma); assay: Antiproliferative activity (CCK-8 cell viability), A431; conditions: Homo sapiens, 72 h, read-out: Antiproliferative activity in cancerous cells, A431 (inhibition of cell growth); for inhibition at 3.3 µM: A-431, Compound concentration: 3.3 μM; for inhibition at 10 µM: A-431, Compound concentration: 10 μM
Summary of the method: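 Cell viability of compound-treated A431 cells was measured with a Cell Counting Kit-8. Each well received 10 μL of CCK-8 after 72 h of compound exposure, followed by 4 h incubation at 37° C. and a 450 nm plate-reader measurement. Percent viability was calculated relative to DMSO controls across replicates.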

[4] = test system: A549 (lung adenocarcinoma); assay: Antiproliferative activity (CCK-8 cell viability), A549; conditions: Homo sapiens, 72 h; for inhibition at 3.3 µM: Compound concentration: 3.3 μM; for inhibition at 10 µM: Compound concentration: 10 μM; for inhibition at 30 µM: Compound concentration: 30 μM
Summary of the method: as §1

HeLa (cervical cancer) = assay: Antiproliferative activity (CCK-8 cell viability), HeLa; conditions: Homo sapiens, 72 h, read-out: Antiproliferative activity in cancerous cells, HELA (inhibition of cell growth); for inhibition at 3.3 µM: Compound concentration: 3.3 μM; for inhibition at 10 µM: Compound concentration: 10 μM
Summary of the method: as §1

[5] = read-out: Antiproliferative activity in cancerous cells, MDA-MB-231 (inhibition of cell growth)
[6] = read-out: Antiproliferative activity in cancerous cells, A549 (inhibition of cell growth)

CC1=C(CC(=O)O)c2c(Cl)cc(Cl)cc2/C1=C\c1ccc(Oc2ccc(F)cc2)cc1 [C87, (Z)-2-(4,6-Dichloro-1-(4-(4-fluorophenoxy)benzylidene)-2-methyl-1H-inden-3-yl)acetic acid]
inhibition at 3.3 µM [1, 5]: ≥ 50%
inhibition at 10 µM [1, 5]: ≥ 50%
inhibition at 3.3 µM (HepG2 (liver cancer)): < 30%
inhibition at 10 µM (HepG2 (liver cancer)): ≥ 50%
inhibition at 3.3 µM (SW480 (colon cancer)): < 30%
inhibition at 10 µM (SW480 (colon cancer)): ≥ 50%
inhibition at 3.3 µM [2]: ≥ 50%
inhibition at 10 µM [2]: ≥ 50%
inhibition at 3.3 µM [3]: ≥ 50%
inhibition at 10 µM [3]: ≥ 50%
inhibition at 3.3 µM [4, 6]: < 30%
inhibition at 10 µM [4, 6]: ≥ 50%
inhibition at 3.3 µM (HeLa (cervical cancer)): < 30%
inhibition at 10 µM (HeLa (cervical cancer)): ≥ 50%

CC1=C(CC(=O)O)c2cc(F)ccc2/C1=C\c1ccc(COCc2ccc(F)cc2)cc1 [B101, (Z)-2-(5-Fluoro-1-(4-(((4-fluorobenzyl)oxy)methyl)benzylidene)-2-methyl-1H-inden-3-yl)acetic acid]
inhibition at 3.3 µM [1, 5]: ≥ 50%
inhibition at 10 µM [1, 5]: ≥ 50%
inhibition at 3.3 µM (HepG2 (liver cancer)): 30 to 50%
inhibition at 10 µM (HepG2 (liver cancer)): ≥ 50%
inhibition at 3.3 µM (SW480 (colon cancer)): < 30%
inhibition at 10 µM (SW480 (colon cancer)): ≥ 50%
inhibition at 3.3 µM [2]: < 30%
inhibition at 10 µM [2]: ≥ 50%
inhibition at 3.3 µM [3]: < 30%
inhibition at 10 µM [3]: 30 to 50%
inhibition at 3.3 µM [4, 6]: 30 to 50%
inhibition at 10 µM [4, 6]: ≥ 50%
inhibition at 3.3 µM (HeLa (cervical cancer)): < 30%
inhibition at 10 µM (HeLa (cervical cancer)): ≥ 50%

CC1=C(CC(=O)O)c2cc(Br)ccc2/C1=C\c1cccc(Oc2ccccc2)c1 [C110, (Z)-2-(5-Bromo-2-methyl-1-(3-phenoxybenzylidene)-1H-inden-3-yl)acetic acid]
inhibition at 3.3 µM [1, 5]: < 30%
inhibition at 10 µM [1, 5]: ≥ 50%
inhibition at 3.3 µM (HepG2 (liver cancer)): < 30%
inhibition at 10 µM (HepG2 (liver cancer)): ≥ 50%
inhibition at 3.3 µM (SW480 (colon cancer)): < 30%
inhibition at 10 µM (SW480 (colon cancer)): 30 to 50%
inhibition at 3.3 µM [2]: ≥ 50%
inhibition at 10 µM [2]: ≥ 50%
inhibition at 3.3 µM [3]: < 30%
inhibition at 10 µM [3]: ≥ 50%
inhibition at 3.3 µM [4, 6]: < 30%
inhibition at 10 µM [4, 6]: ≥ 50%
inhibition at 3.3 µM (HeLa (cervical cancer)): < 30%
inhibition at 10 µM (HeLa (cervical cancer)): ≥ 50%

CC1=C(CC(=O)O)c2cc(F)ccc2/C1=C\c1cccc(Oc2ccc3ccccc3c2)c1 [C99, (Z)-2-(5-Fluoro-2-methyl-1-(3-(naphthalen-2-yloxy)benzylidene)-1H-inden-3-yl)acetic acid]
inhibition at 3.3 µM [1, 5]: < 30%
inhibition at 10 µM [1, 5]: 30 to 50%
inhibition at 3.3 µM (HepG2 (liver cancer)): < 30%
inhibition at 10 µM (HepG2 (liver cancer)): ≥ 50%
inhibition at 3.3 µM (SW480 (colon cancer)): < 30%
inhibition at 10 µM (SW480 (colon cancer)): < 30%
inhibition at 3.3 µM [2]: ≥ 50%
inhibition at 10 µM [2]: ≥ 50%
inhibition at 3.3 µM [3]: < 30%
inhibition at 10 µM [3]: < 30%
inhibition at 3.3 µM [4, 6]: < 30%
inhibition at 10 µM [4, 6]: < 30%
inhibition at 3.3 µM (HeLa (cervical cancer)): < 30%
inhibition at 10 µM (HeLa (cervical cancer)): ≥ 50%

CC1=C(CC(=O)O)c2cccc(F)c2/C1=C/c1cccc(COc2ccccc2)c1 [E8, (E)-2-(7-Fluoro-2-methyl-1-(3-(phenoxymethyl)benzylidene)-1H-inden-3-yl)-acetic acid]
inhibition at 3.3 µM [1, 5]: ≥ 50%
inhibition at 10 µM [1, 5]: ≥ 50%
inhibition at 30 µM [1, 5]: ≥ 50%
inhibition at 3.3 µM (HepG2 (liver cancer)): 30 to 50%
inhibition at 10 µM (HepG2 (liver cancer)): ≥ 50%
inhibition at 30 µM (HepG2 (liver cancer); Compound concentration: 30 μM): ≥ 50%
inhibition at 3.3 µM (SW480 (colon cancer)): 30 to 50%
inhibition at 10 µM (SW480 (colon cancer)): ≥ 50%
inhibition at 30 µM (SW480 (colon cancer); Compound concentration: 30 μM): ≥ 50%
inhibition at 3.3 µM [2]: < 30%
inhibition at 10 µM [2]: 30 to 50%
inhibition at 30 µM ([2]; B16-F10, Compound concentration: 30 μM): ≥ 50%
inhibition at 3.3 µM [3]: ≥ 50%
inhibition at 10 µM [3]: ≥ 50%
inhibition at 30 µM ([3]; A-431, Compound concentration: 30 μM): ≥ 50%
inhibition at 3.3 µM [4, 6]: < 30%
inhibition at 10 µM [4, 6]: ≥ 50%
inhibition at 30 µM [4, 6]: ≥ 50%
inhibition at 3.3 µM (HeLa (cervical cancer)): 30 to 50%
inhibition at 10 µM (HeLa (cervical cancer)): ≥ 50%
inhibition at 30 µM (HeLa (cervical cancer); Compound concentration: 30 μM): ≥ 50%

CC1=C(CC(=O)O)c2cc(C)ccc2/C1=C\c1ccc(COc2ccc(C(F)(F)F)cc2)cc1 [B59, (Z)-2-(2,5-Dimethyl-1-(4-((4-(trifluoromethyl)phenoxy)methyl)benzylidene)-1H-inden-3-yl)acetic acid]
inhibition at 3.3 µM [1, 5]: < 30%
inhibition at 10 µM [1, 5]: < 30%
inhibition at 30 µM ([1]; read-out: Antiproliferative activity in cancerous cells, MDA-MB-231): < 30%
inhibition at 3.3 µM (HepG2 (liver cancer)): < 30%
inhibition at 10 µM (HepG2 (liver cancer)): < 30%
inhibition at 3.3 µM (SW480 (colon cancer)): < 30%
inhibition at 10 µM (SW480 (colon cancer)): 30 to 50%
inhibition at 3.3 µM [2]: 30 to 50%
inhibition at 10 µM [2]: ≥ 50%
inhibition at 3.3 µM [3]: ≥ 50%
inhibition at 10 µM [3]: ≥ 50%
inhibition at 3.3 µM [4, 6]: < 30%
inhibition at 10 µM [4, 6]: 30 to 50%
inhibition at 30 µM ([4]; read-out: Antiproliferative activity in cancerous cells, A549): 30 to 50%
inhibition at 3.3 µM (HeLa (cervical cancer)): 30 to 50%
inhibition at 10 µM (HeLa (cervical cancer)): 30 to 50%

CCc1ccc2c(c1)C(CC(=O)O)=C(C)/C2=C/c1ccc(COc2ccc(C(F)(F)F)cc2)cc1 [B60, (Z)-2-(5-Ethyl-2-methyl-1-(4-((4-(trifluoromethyl)phenoxy)methyl)benzylidene)-1H-inden-3-yl)acetic acid]
inhibition at 3.3 µM [1, 5]: < 30%
inhibition at 10 µM [1, 5]: < 30%
inhibition at 3.3 µM (HepG2 (liver cancer)): ≥ 50%
inhibition at 10 µM (HepG2 (liver cancer)): ≥ 50%
inhibition at 3.3 µM (SW480 (colon cancer)): < 30%
inhibition at 10 µM (SW480 (colon cancer)): ≥ 50%
inhibition at 3.3 µM [2]: 30 to 50%
inhibition at 10 µM [2]: ≥ 50%
inhibition at 3.3 µM [3]: ≥ 50%
inhibition at 10 µM [3]: ≥ 50%
inhibition at 3.3 µM [4, 6]: 30 to 50%
inhibition at 10 µM [4, 6]: ≥ 50%
inhibition at 3.3 µM (HeLa (cervical cancer)): 30 to 50%
inhibition at 10 µM (HeLa (cervical cancer)): ≥ 50%

CC1=C(CC(=O)O)c2cc(F)ccc2/C1=C\c1ccc(CSc2nc3ccccc3[nH]2)cc1 [B44, (Z)-2-(1-(4-(((1H-Benzo[d]imidazol-2-yl)thio)methyl)benzylidene)-5-fluoro-2-methyl-1H-inden-3-yl)acetic acid]
inhibition at 3.3 µM [1, 5]: ≥ 50%
inhibition at 10 µM [1, 5]: ≥ 50%
inhibition at 3.3 µM (HepG2 (liver cancer)): ≥ 50%
inhibition at 10 µM (HepG2 (liver cancer)): ≥ 50%
inhibition at 3.3 µM (SW480 (colon cancer)): 30 to 50%
inhibition at 10 µM (SW480 (colon cancer)): ≥ 50%
inhibition at 3.3 µM [2]: ≥ 50%
inhibition at 10 µM [2]: ≥ 50%
inhibition at 3.3 µM [3]: < 30%
inhibition at 10 µM [3]: ≥ 50%
inhibition at 3.3 µM [4, 6]: < 30%
inhibition at 10 µM [4, 6]: ≥ 50%
inhibition at 3.3 µM (HeLa (cervical cancer)): ≥ 50%
inhibition at 10 µM (HeLa (cervical cancer)): ≥ 50%

CC1=C(CC(=O)O)c2cc(F)ccc2/C1=C\c1ccc(Oc2ccc(Cl)c(F)c2)cc1 [C56, (Z)-2-(1-(4-(4-Chloro-3-fluorophenoxy)benzylidene)-5-fluoro-2-methyl-1H-inden-3-yl)acetic acid]
inhibition at 3.3 µM [1, 5]: ≥ 50%
inhibition at 10 µM [1, 5]: ≥ 50%
inhibition at 3.3 µM (HepG2 (liver cancer)): < 30%
inhibition at 10 µM (HepG2 (liver cancer)): < 30%
inhibition at 3.3 µM (SW480 (colon cancer)): < 30%
inhibition at 10 µM (SW480 (colon cancer)): ≥ 50%
inhibition at 3.3 µM [2]: ≥ 50%
inhibition at 10 µM [2]: ≥ 50%
inhibition at 3.3 µM [3]: ≥ 50%
inhibition at 10 µM [3]: ≥ 50%
inhibition at 3.3 µM [4, 6]: < 30%
inhibition at 10 µM [4, 6]: < 30%
inhibition at 3.3 µM (HeLa (cervical cancer)): ≥ 50%
inhibition at 10 µM (HeLa (cervical cancer)): ≥ 50%
